Measurements from ChEMBL document CHEMBL6103667, “Novel Cyclic Peptides Inhibiting Tumor Necrosis Factor Receptor 1 Activity” (ACS Med Chem Lett, 2025).
Numbered stars: 1 amine (or outer) side, 2 acyl side, 3 side chain; on linkers, the order of the positions; unused ones are H or OH. Bridge positions count the residues as written; N and C are the ends. Square brackets hold non-standard residues; d marks the D form. Peptide text beside a SMILES is read from it. X1 = COc1cccc2c([C@H](C)[C@](C)(N[*:1])C(=O)[*:2])c[nH]c12; Morpholine(3S-CO,6,6-Me2) = CC1(C)CN[C@H](C(=O)O)CO1; Trp(7-Cl) = N[C@@H](Cc1c[nH]c2c(Cl)cccc12)C(=O)O; Phe(4-COOH) = N[C@@H](Cc1ccc(C(=O)O)cc1)C(=O)O; X2 = O=C([C@H]1CC[C@@H](N[*:1])C1)[*:2]; Pip(4-aza) = O=C(O)[C@@H]1CNCCN1; 4Pal = N[C@@H](Cc1ccncc1)C(=O)O; NMeE = CN[C@@H](CCC(=O)O)C(=O)O; X3 = CC[C@H](C(=O)[*:1])[*:2]; NEtAla = CCN[C@@H](C)C(=O)O; αMeS = C[C@](N)(CO)C(=O)O; Nle = CCCC[C@H](N)C(=O)O; Sar = CNCC(=O)O

How the values were obtained:
[1] = molecular target: T1, Tumor necrosis factor receptor superfamily member 1A (Homo sapiens, UniProt P19438); experiment: Displacement of biotinylated peptide from C-terminal 6His-tagged human soluble TNFR1 (1 to 211 residues) extracted from Sf21 baculovirus expression system incubated for 90 mins by LanthaScreen Eu based TR-FRET binding assay
T1 sequence (P19438 whole entry): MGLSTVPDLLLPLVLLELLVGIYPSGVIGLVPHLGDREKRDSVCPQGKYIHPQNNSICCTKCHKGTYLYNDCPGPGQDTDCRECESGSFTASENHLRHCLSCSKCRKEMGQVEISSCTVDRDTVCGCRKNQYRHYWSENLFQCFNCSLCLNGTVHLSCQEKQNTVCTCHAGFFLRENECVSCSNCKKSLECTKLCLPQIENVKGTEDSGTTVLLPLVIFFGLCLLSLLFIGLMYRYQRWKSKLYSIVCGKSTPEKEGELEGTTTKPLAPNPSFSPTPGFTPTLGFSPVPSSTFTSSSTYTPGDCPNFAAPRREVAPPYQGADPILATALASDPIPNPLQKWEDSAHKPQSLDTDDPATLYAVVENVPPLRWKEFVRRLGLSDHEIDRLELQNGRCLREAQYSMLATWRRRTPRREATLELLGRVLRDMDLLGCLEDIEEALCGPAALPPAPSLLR

[2] = molecular target: T1, Tumor necrosis factor receptor superfamily member 1A; experiment: Binding affinity to C-terminal Avi-tagged human TNFRl extracted from Sf21 baculovirus expression system assessed as dissociation constant incubated for 20 hrs in presence of ATP by SPR analysis
[3] = molecular target: T2, Tumor necrosis factor receptor superfamily member 1B (Homo sapiens, UniProt P20333); experiment: Binding affinity to C-terminal Avi-tagged human TNFR2 extracted from Sf21 baculovirus expression system assessed as dissociation constant incubated for 20 hrs in presence of ATP by SPR analysis
T2 sequence (P20333 whole entry): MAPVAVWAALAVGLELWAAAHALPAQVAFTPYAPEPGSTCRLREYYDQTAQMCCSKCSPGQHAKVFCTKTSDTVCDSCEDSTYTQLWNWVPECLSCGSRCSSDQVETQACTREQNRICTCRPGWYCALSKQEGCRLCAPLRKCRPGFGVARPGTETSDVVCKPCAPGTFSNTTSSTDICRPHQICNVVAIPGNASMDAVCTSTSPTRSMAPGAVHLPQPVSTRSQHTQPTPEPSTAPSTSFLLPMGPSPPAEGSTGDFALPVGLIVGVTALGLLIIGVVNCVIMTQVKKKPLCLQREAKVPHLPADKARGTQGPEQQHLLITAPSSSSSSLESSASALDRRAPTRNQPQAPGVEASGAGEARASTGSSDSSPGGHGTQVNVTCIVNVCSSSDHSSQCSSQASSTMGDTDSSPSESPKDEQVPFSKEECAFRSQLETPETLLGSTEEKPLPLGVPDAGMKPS

[4] = Inhibition of TNFalpha-induced NF-kappaB signal transduction pathway in human THP-1 cells preincubated for 1 hrs followed by TNFalpha addition and measured after 16 to 18 hrs by luminescence based microplate reader; format: cell-based

IC50 [4] [nM]	SMILES	IC50 [1] [nM]	Kd [2] [nM]	Kd [3] [nM]
2.2	CCCC[C@@H]1NC(=O)[C@@H](CC)SC[C@@H](C(N)=O)NC(=O)[C@](C)([C@@H](C)c2c[nH]c3c(OC)cccc23)NC(=O)CN(C)C(=O)[C@H](Cc2ccc(O)cc2)NC(=O)[C@H](Cc2ccc(C(=O)O)cc2)NC(=O)[C@](C)(CO)NC(=O)[C@H](Cc2c[nH]c3c(Cl)cccc23)NC(=O)[C@H](Cc2ccncc2)NC(=O)[C@H](CC(N)=O)NC(=O)[C@H](CCC(=O)O)N(C)C(=O)[C@H](Cc2c[nH]c3ccccc23)NC(=O)[C@@H]2COC(C)(C)CN2C(=O)[C@H](Cc2ccncc2)NC1=O ([Nle][4Pal][Morpholine(3S-CO,6,6-Me2)]W[NMeE]N[4Pal][Trp(7-Cl)][αMeS][Phe(4-COOH)]Y[Sar][X1]C-NH2; linker N-14 via X3)	0.55	0.2	> 1000
1.2	CCCC[C@@H]1NC(=O)[C@H]2CC[C@H](C2)NC(=O)[C@](C)([C@@H](C)c2c[nH]c3c(OC)cccc23)NC(=O)CN(C)C(=O)[C@H](Cc2ccc(O)cc2)NC(=O)[C@H](Cc2ccc(C(=O)O)cc2)NC(=O)[C@](C)(CO)NC(=O)[C@H](Cc2c[nH]c3c(Cl)cccc23)NC(=O)[C@H](Cc2ccncc2)NC(=O)[C@H](CC(=O)O)NC(=O)[C@H](CCC(=O)O)N(C)C(=O)[C@H](Cc2c[nH]c3ccccc23)NC(=O)[C@@H]2CNCCN2C(=O)[C@H](Cc2ccncc2)NC1=O (cyclo([4Pal][Trp(7-Cl)][αMeS][Phe(4-COOH)]Y[Sar][X1][X2][Nle][4Pal][Pip(4-aza)]W[NMeE]D))	0.2	0.1	> 1000
0.8	CCCC[C@@H]1NC(=O)CSC[C@@H](C(N)=O)NC(=O)[C@](C)([C@@H](C)c2c[nH]c3c(OC)cccc23)NC(=O)CN(C)C(=O)[C@H](Cc2ccc(O)cc2)NC(=O)[C@H](Cc2ccc(C(=O)O)cc2)NC(=O)[C@](C)(CO)NC(=O)[C@H](Cc2c[nH]c3c(Cl)cccc23)NC(=O)[C@H](Cc2ccncc2)NC(=O)[C@H](CC(N)=O)NC(=O)[C@H](C)N(CC)C(=O)[C@H](Cc2c[nH]c3ccccc23)NC(=O)[C@@H]2COC(C)(C)CN2C(=O)[C@H](Cc2ccncc2)NC1=O ({CH2CO}-[Nle][4Pal][Morpholine(3S-CO,6,6-Me2)]W[NEtAla]N[4Pal][Trp(7-Cl)][αMeS][Phe(4-COOH)]Y[Sar][X1]C-NH2; thioether N-14)	0.6	0.14	> 1000
